Measured values: article PMC11098465, “A comparative analysis of peptide-delivered antisense antibiotics using diverse nucleotide mimics” (RNA, 2024)
Values joined by “and” are separate entries in the source; they are usually repeats but may differ in a detail not shown here. Equal entries are not always repeated.

Experiments:
[1] = test system: acpP::gfp reporter transcript; assay: In vitro translation of acpP::gfp reporter (PURExpress) with western blot; format: biochemical, Salmonella; set-up: key to Inhibition of translation in vitro: +++: Effect strength is represented by additional (+) signs.; ++: Effect strength is represented by additional (+) signs.; Effect strength is represented by additional (+) signs; conditions: unconjugated ASO; for Inhibition of translation in vitro: ASO:RNA 0.6:1 to 5:1, 100 nM RNA, 2 h 37°C, summary grade; for Inhibition of in vitro translation of acpP::gfp (in words): western blot of AcpP(1–17)::GFP
Protocol: As a next step, we used a cell-free in vitro translation system ([Popella et al. 2022]) to investigate whether ASO binding to mRNA leads to a block in protein synthesis. As a template, we used the acpP sequence spanning −40 to +51 relative to the AUG start codon fused to a gfp reporter gene (acpP::gfp). This construct was in vitro transcribed, preincubated with different ASOs at different ratios and subsequently translated in vitro. Water was used as a negative control.
For the generation of target RNA::gfp fusion constructs, we used a previously established protocol ([Popella et al. 2022]) and the oligonucleotides JVO-19760/JVO-19761 (Supplemental Table S1) to amplify the genomic region spanning nucleotides –40 to +51 relative to the translational start codon of acpP. The sense oligonucleotide was fused to a T7 promoter sequence for subsequent transcription of the final fusion construct in vitro. The antisense oligonucleotide contained a 30 nt overlapping region with gfp for subsequent fusion PCR with full-length gfp (pXG-10; JVO-19762/JVO-19763) (Supplemental Table S1). The PCR products were purified with NucleoSpin Gel and PCR Clean-up (Macherey-Nagel) according to the manufacturer's instructions, and DNA concentration was quantified with a NanoDrop spectrophotometer (A260 nm).
PCR products were used for T7 RNA polymerase-driven transcription in vitro using the MEGAscript T7 kit (Ambion/Thermo Scientific), according to the manufacturer's instructions and analogous to our previous publication ([Popella et al. 2022]). The concentration of the RNA solution was quantified with Qubit (Fisher Scientific), and the expected product size and RNA integrity were verified on a 6% PAA, 7 M urea gel.
For in vitro translation of target RNA::gfp fusion constructs, the PURExpress In Vitro Protein Synthesis Kit (New England Biolabs, E6800L) was used as described previously ([Popella et al. 2022]). Briefly, the final volume of each in vitro translation reaction was set to 10 µL. One microliter of different concentrations of ASOs ranging from 10 to 0.625 µM was added to 1 µL of in vitro transcribed heat-denatured RNA (1 µM) to adjust the final RNA concentration to 100 nM. The mixtures were preincubated at 37°C for 5 min. Then 4 µL of Solution A and 3 µL of Solution B were added to the preannealed mixtures. After 2 h at 37°C, protein samples were denatured in 1× reducing protein loading buffer (62.6 mM Tris–HCl pH 6.8, 2% SDS, 0.1 mg/mL bromphenol blue, 15.4 mg/mL DTT, 10% glycerol) at 95°C for 5 min.
To visualize in vitro translated proteins, samples were separated on SDS-PAA (12% PAA) gels, with subsequent semi-dry western blot transfer on nitrocellulose membranes. Membranes were blocked with 10% skim milk (in 1× TBS-T) for 1 h and probed with anti-GFP antibody (1:1000; Sigma-Aldrich) in 5% skim milk (in 1× TBS-T) overnight at 4°C. After washing in 1× TBS-T and incubation with an HRP-conjugated secondary antibody (1:5000; Thermo Scientific) in 1× TBS-T, the membrane was incubated with a developing solution kit (Amersham ECL Select Western Blotting Detection Reagent), and protein levels were detected using an ImageQuant LAS 500 (GE Healthcare Life Sciences). Images were processed and band intensities quantified using ImageJ. Protein bands were normalized to the water control.

[2] = test system: 10 nt long target mRNA (acpP, fully complementary 10mer RNA fragment); assay: Thermal UV melting curves of ASO:RNA duplexes; format: binding, Salmonella; conditions: unconjugated ASO and 10 nt target RNA, 2 µM each mixed 1:1; 100 mM NaCl, 10 mM phosphate, pH 7.0; UV 260 nm, 10-90°C at 0.5°C/min, five ramps; two-state fit
Protocol: Next, we assessed the melting temperatures of each ASO:RNA duplex across a temperature range of 10°C–90°C (Fig. 3A; Supplemental Fig. S3). In this experiment, we used a fully complementary 10mer RNA fragment instead of the 40 nt long target RNA sequence, because the longer target might form internal secondary structures that could interfere with the measurement of the melting temperature. […] This is in line with previous observations ([Freier and Altmann 1997]) and our EMSA results (Fig. 2). […] The melting temperature of RNA-F and RNA-MOE was around 56°C (Table 1).
Three hundred microliters of 10 nt long target mRNA (2 µM) was mixed with 300 µL of each of the ASOs (2 µM) in phosphate buffer (100 mM NaCl, 10 mM phosphate, pH 7.0). Thermal UV melting curves were recorded at Agilent Cary UV–Vis Multicell Peltier. Before measurement, the samples were overlaid with silicon oil to prevent evaporation during heating. Five temperature ramps with a heating/cooling rate of 0.5°C/min between 10°C and 90°C at 260 nm were collected. All the melting curves were plotted using OriginPro 2023, fit to a two-state transition model with upper and lower baselines to determine Tm as previously reported ([Dietzsch et al. 2022]).

Row | Substance | Inhibition of translation in vitro [1] | Inhibition of in vitro translation of acpP::gfp (in words) [1] | Tm of ASO:mRNA complexes [2]
1 | RNA-F: 2′-fluorinated RNA 10mer ASO, sequence CTCATACTCT, targeting acpP −5 to +5 (all 2'-fluoro, backbone and T or U not given here) | ++ | less pronounced | 
2 | PNA: peptide nucleic acid 10mer ASO, sequence CTCATACTCT, targeting acpP −5 to +5 (all peptide nucleic acid (PNA)) | +++ | substantially blocking in vitro translation of acpP::gfp at 1.25× molar excess | 44.3 °C and 44.3 ± 1.1 °C
3 | DNA-PTO: phosphorothioate-modified DNA 10mer ASO, sequence CTCATACTCT, targeting acpP −5 to +5 (DNA, all phosphorothioate, methylation of C not given here) |  | did not inhibit protein synthesis | 25.8 °C and 25.8 ± 0.7 °C
4 | LNA: 2′–4′-locked RNA 10mer ASO, sequence CTCATACTCT, targeting acpP −5 to +5 (all LNA, backbone and methylation of C not given here) | +++ | substantially blocking in vitro translation of acpP::gfp at 1.25× molar excess | 87.4 °C and 87.4 ± 2 °C
5 | PMO: phosphorodiamidate morpholino 10mer ASO, sequence CTCATACTCT, targeting acpP −5 to +5 (all phosphorodiamidate morpholino (PMO)) | ++ | less pronounced | 41.8 °C and 41.8 ± 0.6 °C
6 | RNA-MOE: 2′-methoxyethylated RNA 10mer ASO, sequence CTCATACTCT, targeting acpP −5 to +5 (all 2'-MOE, backbone and methylation of C not given here) | +++ | substantially blocking in vitro translation of acpP::gfp at 1.25× molar excess | 
7 | RNA-OMe: 2′-methylated RNA 10mer ASO, sequence CTCATACTCT, targeting acpP −5 to +5 (all 2'-O-methyl, backbone and T or U not given here) |  | less pronounced | 48.3 °C and 48.3 ± 0.8 °C
